ChEMBL document CHEMBL4411307, “N,N'-diaryl-bishydrazones in a biphenyl platform: Broad spectrum antifungal agents” (Eur J Med Chem, 2019)
Values after ≈ are worked out from the molar mass of the structure shown. Active and inactive are the calls of the source. No cut-off for these calls is given here.

Assays:
[1] = test system: Listeria monocytogenes; assay: Antibacterial activity against Listeria monocytogenes; assay type: functional, organism-based
[2] = test system: Staphylococcus aureus; assay: Antibacterial activity against methicillin-resistant Staphylococcus aureus; assay type: functional, organism-based
[3] = test system: Enterococcus; assay: Antibacterial activity against vancomycin-resistant Enterococcus; assay type: functional, organism-based
[4] = test system: Candida albicans; assay: Antifungal activity against fluconazole/ITC-resistant Candida albicans ATCC 10231 measured after 48 hrs by CLSI M27-A3 protocol based method; assay type: functional; settings: ATCC 10231, 48 h
[5] = test system: Candida albicans; assay: Antifungal activity against fluconazole/ITC-resistant Candida albicans ATCC 64124 measured after 48 hrs by CLSI M27-A3 protocol based method; assay type: functional; settings: ATCC 64124, 48 h
[6] = test system: Candida albicans; assay: Antifungal activity against fluconazole/ITC-susceptible Candida albicans ATCC MYA-2876 measured after 48 hrs by CLSI M27-A3 protocol based method; assay type: functional; settings: ATCC MYA-2876, 48 h
[7] = test system: Candida albicans; assay: Antifungal activity against fluconazole/ITC-resistant Candida albicans ATCC 90819 measured after 48 hrs by CLSI M27-A3 protocol based method; assay type: functional; settings: ATCC 90819, 48 h
[8] = test system: Candida albicans; assay: Antifungal activity against fluconazole/ITC-susceptible Candida albicans ATCC MYA-2310 measured after 48 hrs by CLSI M27-A3 protocol based method; assay type: functional; settings: ATCC MYA-2310, 48 h
[9] = test system: Candida albicans; assay: Antifungal activity against fluconazole/ITC-resistant Candida albicans ATCC MYA-1237 measured after 48 hrs by CLSI M27-A3 protocol based method; assay type: functional; settings: ATCC MYA-1237, 48 h
[10] = test system: Candida albicans; assay: Antifungal activity against fluconazole/ITC-resistant Candida albicans ATCC MYA-1003 measured after 48 hrs by CLSI M27-A3 protocol based method; assay type: functional; settings: ATCC MYA-1003, 48 h
[11] = test system: Nakaseomyces glabratus; assay: Antifungal activity against Candida glabrata ATCC 2001 measured after 48 hrs by CLSI M27-A3 protocol based method; assay type: functional; settings: CBS 138, 48 h
[12] = test system: Pichia kudriavzevii; assay: Antifungal activity against Candida krusei ATCC 6258 measured after 48 hrs by CLSI M27-A3 protocol based method; assay type: functional; settings: ATCC 6258, 48 h
[13] = test system: Candida parapsilosis; assay: Antifungal activity against Candida parapsilosis ATCC 22019 measured after 48 hrs by CLSI M27-A3 protocol based method; assay type: functional; settings: Lodderomyces parapsilosis, ATCC 22019, 48 h
[14] = test system: Aspergillus flavus; assay: Antifungal activity against Aspergillus flavus ATCC MYA-3631 measured after 48 hrs by CLSI M38-A2 protocol based method; assay type: functional; settings: ATCC MYA-3631, 48 h
[15] = test system: Aspergillus nidulans; assay: Antifungal activity against Aspergillus nidulans ATCC 38163 measured after 48 hrs by CLSI M38-A2 protocol based method; assay type: functional; settings: ATCC 38163, 48 h
[16] = test system: Aspergillus terreus; assay: Antifungal activity against Aspergillus terreus ATCC MYA-3633 measured after 48 hrs by CLSI M38-A2 protocol based method; assay type: functional; settings: ATCC MYA-3633, 48 h
[17] = test system: A549; assay: Cytotoxicity against human A549 cells after 24 hrs by resazurin based assay; assay type: cell-based; settings: a549, 24 h
[18] = test system: BEAS-2B; assay: Cytotoxicity against human BEAS2B cells after 24 hrs by resazurin based assay; assay type: cell-based
[19] = Selectivity index, ratio of CC50 for human A549 cells to MIC for fluconazole/ITC-resistant Candida albicans ATCC 10231; assay type: toxicity; settings: read-out: Selectivity Index
[20] = Selectivity index, ratio of CC50 for human A549 cells to MIC for fluconazole/ITC-resistant Candida albicans ATCC 64124; assay type: toxicity; settings: read-out: Selectivity Index
[21] = Selectivity index, ratio of CC50 for human A549 cells to MIC for fluconazole/ITC-susceptible Candida albicans ATCC MYA-2876; assay type: toxicity; settings: read-out: Selectivity Index
[22] = Selectivity index, ratio of CC50 for human A549 cells to MIC for fluconazole/ITC-resistant Candida albicans ATCC 90819; assay type: toxicity; settings: read-out: Selectivity Index
[23] = Selectivity index, ratio of CC50 for human A549 cells to MIC for fluconazole/ITC-susceptible Candida albicans ATCC MYA-2310; assay type: toxicity; settings: read-out: Selectivity Index
[24] = Selectivity index, ratio of CC50 for human A549 cells to MIC for fluconazole/ITC-resistant Candida albicans ATCC MYA-1237; assay type: toxicity; settings: read-out: Selectivity Index
[25] = Selectivity index, ratio of CC50 for human A549 cells to MIC for fluconazole/ITC-resistant Candida albicans ATCC MYA-1003; assay type: toxicity; settings: read-out: Selectivity Index
[26] = Selectivity index, ratio of CC50 for human A549 cells to MIC for Candida glabrata ATCC 2001; assay type: toxicity; settings: read-out: Selectivity Index
[27] = Selectivity index, ratio of CC50 for human A549 cells to MIC for Candida krusei ATCC 6258; assay type: toxicity; settings: read-out: Selectivity Index
[28] = Selectivity index, ratio of CC50 for human A549 cells to MIC for Candida parapsilosis ATCC 22019; assay type: toxicity; settings: read-out: Selectivity Index
[29] = Selectivity index, ratio of CC50 for human A549 cells to MIC for Aspergillus flavus ATCC MYA-3631; assay type: toxicity; settings: read-out: Selectivity Index
[30] = Selectivity index, ratio of CC50 for human A549 cells to MIC for Aspergillus nidulans ATCC 38163; assay type: toxicity; settings: read-out: Selectivity Index
[31] = Selectivity index, ratio of CC50 for human A549 cells to MIC for Aspergillus terreus ATCC MYA-3633; assay type: toxicity; settings: read-out: Selectivity Index
[32] = Hemolytic activity in mouse RBC at […] after 1 hr relative to control; assay type: ADME, cell-based, Erythrocyte; settings: red blood cells (erythrocytes), read-out: Activity; note: tested at 0.48 µg/mL
[33] = Hemolytic activity in mouse RBC at […] ug/ml after 1 hr relative to control; assay type: ADME, cell-based, Erythrocyte; settings: red blood cells (erythrocytes), read-out: Activity
[34] = Hemolytic activity in mouse RBC at 1.95 ug/ml after 1 hr relative to control; assay type: ADME, cell-based, Erythrocyte; settings: red blood cells (erythrocytes), read-out: Activity
[35] = Hemolytic activity in mouse RBC at 3.9 ug/ml after 1 hr relative to control; assay type: ADME, cell-based, Erythrocyte; settings: red blood cells (erythrocytes), read-out: Activity
[36] = Hemolytic activity in mouse RBC at 7.8 ug/ml after 1 hr relative to control; assay type: ADME, cell-based, Erythrocyte; settings: red blood cells (erythrocytes), read-out: Activity
[37] = Hemolytic activity in mouse RBC at 31.3 ug/ml after 1 hr relative to control; assay type: ADME, cell-based, Erythrocyte; settings: red blood cells (erythrocytes), read-out: Activity
[38] = Hemolytic activity in mouse RBC at 62.5 ug/ml after 1 hr relative to control; assay type: ADME, cell-based, Erythrocyte; settings: red blood cells (erythrocytes), read-out: Activity
[39] = Selectivity index, ratio of compound concentration showing <20 to <25% hemolysis in mouse RBC to MIC for fluconazole/ITC-resistant Candida albicans ATCC 10231; assay type: toxicity; settings: red blood cells (erythrocytes), read-out: Selectivity Index
[40] = Selectivity index, ratio of compound concentration showing <20 to <25% hemolysis in mouse RBC to MIC for fluconazole/ITC-resistant Candida albicans ATCC 64124; assay type: toxicity; settings: red blood cells (erythrocytes), read-out: Selectivity Index
[41] = Selectivity index, ratio of compound concentration showing <20 to <25% hemolysis in mouse RBC to MIC for fluconazole/ITC-susceptible Candida albicans ATCC MYA-2876; assay type: toxicity; settings: red blood cells (erythrocytes), read-out: Selectivity Index
[42] = Selectivity index, ratio of compound concentration showing <20 to <25% hemolysis in mouse RBC to MIC for fluconazole/ITC-resistant Candida albicans ATCC 90819; assay type: toxicity; settings: red blood cells (erythrocytes), read-out: Selectivity Index
[43] = Selectivity index, ratio of compound concentration showing <20 to <25% hemolysis in mouse RBC to MIC for fluconazole/ITC-susceptible Candida albicans ATCC MYA-2310; assay type: toxicity; settings: red blood cells (erythrocytes), read-out: Selectivity Index
[44] = Selectivity index, ratio of compound concentration showing <20 to <25% hemolysis in mouse RBC to MIC for fluconazole/ITC-resistant Candida albicans ATCC MYA-1237; assay type: toxicity; settings: red blood cells (erythrocytes), read-out: Selectivity Index
[45] = Selectivity index, ratio of compound concentration showing <20 to <25% hemolysis in mouse RBC to MIC for fluconazole/ITC-resistant Candida albicans ATCC MYA-1003; assay type: toxicity; settings: red blood cells (erythrocytes), read-out: Selectivity Index
[46] = Selectivity index, ratio of compound concentration showing <20 to <25% hemolysis in mouse RBC to MIC for Candida glabrata ATCC 2001; assay type: toxicity; settings: red blood cells (erythrocytes), read-out: Selectivity Index
[47] = Selectivity index, ratio of compound concentration showing <20 to <25% hemolysis in mouse RBC to MIC for Candida krusei ATCC 6258; assay type: toxicity; settings: red blood cells (erythrocytes), read-out: Selectivity Index
[48] = Selectivity index, ratio of compound concentration showing <20 to <25% hemolysis in mouse RBC to MIC for Candida parapsilosis ATCC 22019; assay type: toxicity; settings: red blood cells (erythrocytes), read-out: Selectivity Index
[49] = Selectivity index, ratio of compound concentration showing <20 to <25% hemolysis in mouse RBC to MIC for Aspergillus flavus ATCC MYA-3631; assay type: toxicity; settings: red blood cells (erythrocytes), read-out: Selectivity Index
[50] = Selectivity index, ratio of compound concentration showing <20 to <25% hemolysis in mouse RBC to MIC for Aspergillus nidulans ATCC 38163; assay type: toxicity; settings: red blood cells (erythrocytes), read-out: Selectivity Index
[51] = Selectivity index, ratio of compound concentration showing <20 to <25% hemolysis in mouse RBC to MIC for Aspergillus terreus ATCC MYA-3633; assay type: toxicity; settings: red blood cells (erythrocytes), read-out: Selectivity Index

With `C(=N\Nc1ccccc1)/c1ccc(-c2ccc(/C=N/Nc3ccccc3)cc2)cc1` the Activity [1] was “inactive”, the Activity [2] was “inactive” and the Activity [3] was “inactive”. The MIC [4] was 7.8 µg/mL (≈ 20 µM), the MIC [5] was greater than 31.3 µg/mL and the MIC [6] was greater than 31.3 µg/mL. The MIC [7] was 31.3 µg/mL (≈ 80.2 µM), the MIC [8] was greater than 31.3 µg/mL and the MIC [9] was greater than 31.3 µg/mL. The MIC [10] was greater than 31.3 µg/mL, the MIC [11] was greater than 31.3 µg/mL and the MIC [12] was greater than 31.3 µg/mL. For the same molecule, the MIC [13] was greater than 31.3 µg/mL, the MIC [14] was 3.9 µg/mL (≈ 9.99 µM) and the MIC [15] was 1.95 µg/mL (≈ 4.99 µM). It also gave an MIC [16] of 15.6 µg/mL (≈ 39.9 µM), a CC50 [17] of 17.7 µg/mL (≈ 45.3 µM) and a CC50 [18] of 11 µg/mL (≈ 28.2 µM). It also gave a selectivity ratio [19] of 2.3, a selectivity ratio [20] of 0.6 and a selectivity ratio [21] of 0.6. For the same molecule, the selectivity ratio [22] was 0.6, the selectivity ratio [23] was 0.6 and the selectivity ratio [24] was 0.6. It also gave a selectivity ratio [25] of 0.6, a selectivity ratio [26] of 0.6 and a selectivity ratio [27] of 0.6. It also gave a selectivity ratio [28] of 0.6, a selectivity ratio [29] of 4.5 and a selectivity ratio [30] of 9.1. The selectivity ratio [31] was 1.1, the hemolysis at 1 h, […] [32] was 2% and the hemolysis at 1 h, 15.6 ug/ml ([33]; at 15.6 µg/mL) was 14.1%. For the same molecule, the hemolysis at 1 h, 0.975 ug/ml [33] was 0.1%, the hemolysis at 1 h, 1.95 ug/ml [34] was 3.7% and the hemolysis at 1 h, 3.9 ug/ml [35] was 3.4%. It also gave a hemolysis at 1 h, 7.8 ug/ml [36] of 2.9%, a hemolysis at 1 h, 31.3 ug/ml [37] of 10.8% and a hemolysis at 1 h, 62.5 ug/ml [38] of 17.2%. It also gave a selectivity ratio [39] of 1 to 32, a selectivity ratio [40] of 1 to 32 and a selectivity ratio [41] of 1 to 32. For the same molecule, the selectivity ratio [42] was 1 to 32, the selectivity ratio [43] was 1 to 32 and the selectivity ratio [44] was 1 to 32. The selectivity ratio [45] was 1 to 32, the selectivity ratio [46] was 1 to 32 and the selectivity ratio [47] was 1 to 32. The selectivity ratio [48] was 1 to 32, the selectivity ratio [49] was 1 to 32 and the selectivity ratio [50] was 1 to 32. It also gave a selectivity ratio [51] of 1 to 32.
